Data on one compound can be found in patent US20170360073A1, “OPTIMIZED NUTRIENT FATTY ACID COMPOSITION” (priority 2014, published 2017).

SMILES strings stand for the structures.

In the assay the test system is patients with menopausal symptoms. The assay can be described thus: Case study: menopausal symptoms, transdermal estriol in oil (Example 15). Type of assay: in vivo, human. Conditions: after 15 and 30 days; one patient each: estriol 1 mg oral tablet daily; example 7 oil 0.5 ml twice daily on skin (0.25 mg estriol daily); oral multivitamin and minerals tablet. On the procedure: Three patients with menopausal symptoms were taken for study. The patients were divided into three groups. First patient was advised to take orally estriol one mg as tablet daily. Second patient was advised to apply over skin of thighs and abdomen 0.5 ml twice daily medicated optimized nutrient oil prepared by a process as given in example-7 which contains 0.25 mg estriol/ml, so that 0.25 mg estriol is absorbed daily by the body through skin. Third patient was given oral multivitamin and minerals as tablet.

For `C[C@]12CC[C@@H]3c4ccc(O)cc4CC[C@H]3[C@@H]1C[C@@H](O)[C@@H]2O` [estriol], the “hot flushes, mood changes and sleep pattern” value is given as “improvement in all the three symptoms”.
